Test results: article PMC12812255 (ACS infectious diseases, 2025)
In brackets after ≈: the same amount, converted by molar mass. Where two headings read alike, the source gives them in different places.

Experiments:
[1] = system: intracellular Mtb H37Ra in RAW264.7 macrophages; test: Phagocytosis assay, intracellular bacterial load in RAW264.7 macrophages
[2] = in vitro; settings: human
[3] = molecular target: T1, MtbADSL (Mycobacterium tuberculosis, UniProt I6XWA1); test: Fluorescence polarization; format: biochemical
[4] = molecular target: T2, human ADSL (huADSL) (Homo sapiens, UniProt P30566); test: Human ADSL PPDK-AMP assay; format: biochemical; settings: for SI, selectivity index, IC50-human/IC50-Mtb: PPDK-coupling assay
T2 sequence (P30566 1-484): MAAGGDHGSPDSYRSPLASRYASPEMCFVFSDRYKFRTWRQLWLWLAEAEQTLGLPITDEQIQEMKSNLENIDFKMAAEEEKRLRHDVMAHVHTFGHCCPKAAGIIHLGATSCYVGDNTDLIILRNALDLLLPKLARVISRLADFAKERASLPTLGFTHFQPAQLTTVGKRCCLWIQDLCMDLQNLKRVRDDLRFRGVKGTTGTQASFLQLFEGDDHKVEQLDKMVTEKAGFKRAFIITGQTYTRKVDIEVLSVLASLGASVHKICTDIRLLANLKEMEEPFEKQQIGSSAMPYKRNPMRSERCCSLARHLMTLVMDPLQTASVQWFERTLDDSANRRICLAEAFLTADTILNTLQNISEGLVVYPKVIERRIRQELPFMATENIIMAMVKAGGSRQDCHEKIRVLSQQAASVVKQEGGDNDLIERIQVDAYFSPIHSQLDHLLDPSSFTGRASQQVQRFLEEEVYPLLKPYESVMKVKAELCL

[5] = molecular target: T1, MtbADSL; test: Protein thermal shift assay; format: binding; settings: compound together with 4-HNE, 10 μM
[6] = system: M. tuberculosis H37Ra; test: Antibacterial susceptibility, broth dilution, AlamarBlue; format: cell-based; settings: Mycobacterium tuberculosis, read-out: MIC H37Ra
[7] = molecular target: T1, MtbADSL; test: Gel-based thermal shift assay; format: binding; settings: 15 or 30 μM compound, MtbADSL 5 μM
[8] = molecular target: T1, MtbADSL; test: AMP-Glo Mtb ADSL assay; format: biochemical
[9] = molecular target: coupling enzymes, PPDK and luciferase; test: ADSL-free PPDK-luciferase coupling enzyme assay; format: biochemical, Clostridium symbiosum (PPDK); firefly (luciferase); settings: read-out: IC50 ADSL-free; no ADSL, AMP 10 μM as substrate
[10] = system: M. tuberculosis H37Rv; test: Antibacterial susceptibility, OD600, MIC estimated as EC90; format: cell-based; settings: Mycobacterium tuberculosis, read-out: MIC H37Rv (estimated by EC90)
[11] = in vitro; settings: human, CC50 CCF-STTG1
[12] = molecular target: T1, MtbADSL; test: PPDK-luciferase coupling Mtb ADSL enzyme assay; format: biochemical
[13] = system: A549 cells; test: Cytotoxicity CCK-8; settings: at the MIC determined for H37Rv
[14] = Cytotoxicity CCK-8; settings: human
[15] = system: Mtb H37Ra; test: AMP rescue assay; format: cell-based, Mycobacterium tuberculosis; settings: compound at MIC, AMP 0-5 mM, 7 days
[16] = Cytotoxicity CCK-8; settings: human, HEK293 cells
[17] = Cytotoxicity CCK-8; settings: human, CCF-STTG1 cells, CC50 CCF-STTG1, 48 h
[18] = system: Mycobacterium abscessus; settings: cited from earlier work

For O=C(O)Cc1cc(I)c(Oc2cc(I)c(O)c(I)c2)c(I)c1 [Tetrac, tetraiodothyroacetic acid], the “Reduction of intracellular Mtb growth” value ([1]; 5 μM) was ~ 1 log, the “Reduction of intracellular Mtb growth” value ([1]; 15 μM) was ~ 2.5 log and the viability at 48 h [2] was about 71%. For the same compound, the IC50 [3] was 13 µM, the IC50 [4] was 22.4 µM and the “SI, selectivity index, IC50-human/IC50-Mtb” value ([4]; listed as TT) was 4.7. The “Reduction of Tm on co-incubation with 4-HNE” value [5] was ~ 0.6 °C, the MIC ([6]; 168 h) was 6.2 µg/mL and the MIC [6] was 8.3 µM. For the same compound, the “Protection of MtbADSL from heat-induced denaturation and aggregation” value [7] was “dose-dependent protection”, the IC50 [8] was 1.6 µM and the IC50 [9] was 24.5 µM. It also gave an MIC [10] of 30 µM (≈ 22.4 µg/mL), a CC50 at 48 h [11] of over 200 µM and an IC50 [12] of 4.8 µM.
CCCCCC(O)/C=C/C=O (stereo not shown) [4-HNE, 4-hydroxynonenal] showed an IC50 ([12]; read-out: IC50-Mtb PPDK, PPDK-luciferase coupling assay, SAMP 20 μM) of 2.6 µM.
For Oc1c(Cl)cc(Cl)cc1Sc1cc(Cl)cc(Cl)c1O [bithionol], the “Reduction of A549 cell viability” value [13] was ~ 45%, the CC50 at 48 h [14] was 32.4 µM and the “Reduction of intracellular Mtb growth” value ([1]; 5 μM) was ~ 2.3 log. For the same compound, the “Reduction of intracellular Mtb growth” value ([1]; 15 μM) was 4.6 log, the “AMP concentration at which growth is rescued” value [15] was 5.0 mM and the IC50 [3] was 6.2 µM. The IC50 [4] was 14.7 µM, the “SI, selectivity index, IC50-human/IC50-Mtb” value [4] was 9.2 and the MIC ([6]; 168 h) was 3.1 µg/mL. It also gave an MIC [6] of 8.7 µM, a CC50 at 48 h [16] of 19.3 µM and a CC50 at 48 h [17] of about 139 µM. For the same compound, the “Protection of MtbADSL from heat-induced denaturation and aggregation” value [7] was “dose-dependent protection”, the IC50 [8] was 1.2 µM and the “MIC against Mycobacterium abscessus” value [18] was 0.625 to 2.5 µM. It also gave an IC50 [9] of 21.6 µM, an MIC [10] of 28 µM (≈ 9.97 µg/mL) and an IC50 [12] of 1.6 µM.
